Results published in ChEMBL document CHEMBL4804284.
Calls of active or inactive are those of the source. No cut-off for these calls is given here.

Assays:
[1] = target: Mitogen-activated protein kinase kinase kinase 1 (Homo sapiens) (UniProt Q13233); test: Inhibition of DNA-tagged human MAP3K1 assessed as percent of control at 50000 nM by qPCR analysis relative to control; set-up: scale not given: the % may be the effect or the level left
[2] = target: Serine/threonine-protein kinase Sgk3 (Homo sapiens) (UniProt Q96BR1); test: Inhibition of DNA-tagged human SGK3 assessed as percent of control at 50000 nM by qPCR analysis relative to control; set-up: scale not given: the % may be the effect or the level left
[3] = target: Serine/threonine-protein kinase 10 (Homo sapiens) (UniProt O94804); test: Inhibition of DNA-tagged human LOK assessed as percent of control at 50000 nM by qPCR analysis relative to control; set-up: scale not given: the % may be the effect or the level left
[4] = target: Tyrosine-protein kinase FRK (Homo sapiens) (UniProt P42685); test: Inhibition of DNA-tagged human FRK assessed as percent of control at 50000 nM by qPCR analysis relative to control; set-up: scale not given: the % may be the effect or the level left
[5] = target: MAP kinase-activated protein kinase 5 (Homo sapiens) (UniProt Q8IW41); test: Inhibition of DNA-tagged human MAPKAPK5 assessed as percent of control at 50000 nM by qPCR analysis relative to control; set-up: scale not given: the % may be the effect or the level left
[6] = target: Activin receptor type-1-like (Homo sapiens) (UniProt P37023); test: Inhibition of DNA-tagged human ACVRL1 assessed as percent of control at 50000 nM by qPCR analysis relative to control; set-up: scale not given: the % may be the effect or the level left
[7] = target: Dual specificity protein kinase CLK2 (Homo sapiens) (UniProt P49760); test: Inhibition of DNA-tagged human CLK2 assessed as percent of control at 50000 nM by qPCR analysis relative to control; set-up: scale not given: the % may be the effect or the level left
[8] = target: Ribosomal protein S6 kinase alpha-4 (Homo sapiens) (UniProt O75676); test: Inhibition of DNA-tagged human C-terminal RPS6KA4 kinase domain 2 assessed as percent of control at 50000 nM by qPCR analysis relative to control; set-up: scale not given: the % may be the effect or the level left
[9] = target: Mitogen-activated protein kinase kinase kinase 7 (Homo sapiens) (UniProt O43318); test: Inhibition of DNA-tagged human TAK1 assessed as percent of control at 50000 nM by qPCR analysis relative to control; set-up: scale not given: the % may be the effect or the level left
[10] = target: Serine/threonine-protein kinase D1 (Homo sapiens) (UniProt Q15139); test: Inhibition of DNA-tagged human PRKD1 assessed as percent of control at 50000 nM by qPCR analysis relative to control; set-up: scale not given: the % may be the effect or the level left
Sequence of Serine/threonine-protein kinase D1 (Homo sapiens) (Q15139 whole entry): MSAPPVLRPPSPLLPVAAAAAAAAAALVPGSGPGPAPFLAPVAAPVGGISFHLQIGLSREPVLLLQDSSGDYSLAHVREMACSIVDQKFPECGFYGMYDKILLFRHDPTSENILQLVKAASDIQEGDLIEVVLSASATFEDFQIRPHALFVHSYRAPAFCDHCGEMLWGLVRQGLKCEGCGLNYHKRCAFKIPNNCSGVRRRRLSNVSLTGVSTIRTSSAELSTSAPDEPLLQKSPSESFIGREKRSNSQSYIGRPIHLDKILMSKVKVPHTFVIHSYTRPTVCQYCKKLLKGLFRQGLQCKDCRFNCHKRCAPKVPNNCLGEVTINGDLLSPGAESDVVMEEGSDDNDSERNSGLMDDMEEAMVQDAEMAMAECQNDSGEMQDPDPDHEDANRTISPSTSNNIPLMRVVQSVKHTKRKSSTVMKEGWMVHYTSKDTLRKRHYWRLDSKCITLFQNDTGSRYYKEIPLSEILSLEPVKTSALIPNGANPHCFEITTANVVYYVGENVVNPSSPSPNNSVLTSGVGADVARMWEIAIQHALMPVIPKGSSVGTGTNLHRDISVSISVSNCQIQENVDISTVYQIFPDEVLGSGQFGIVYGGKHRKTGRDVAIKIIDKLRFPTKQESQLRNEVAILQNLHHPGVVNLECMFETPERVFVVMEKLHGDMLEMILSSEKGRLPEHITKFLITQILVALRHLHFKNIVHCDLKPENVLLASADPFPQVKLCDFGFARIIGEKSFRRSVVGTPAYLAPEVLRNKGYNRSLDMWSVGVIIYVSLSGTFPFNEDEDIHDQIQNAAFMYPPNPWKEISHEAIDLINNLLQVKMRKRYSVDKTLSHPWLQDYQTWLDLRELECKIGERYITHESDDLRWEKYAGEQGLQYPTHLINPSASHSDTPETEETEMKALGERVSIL

[11] = target: Serine/threonine-protein kinase pim-2 (Homo sapiens) (UniProt Q9P1W9); test: Inhibition of DNA-tagged human PIM2 assessed as percent of control at 50000 nM by qPCR analysis relative to control; set-up: scale not given: the % may be the effect or the level left
[12] = target: Serine/threonine-protein kinase D2 (Homo sapiens) (UniProt Q9BZL6); test: Inhibition of DNA-tagged human PRKD2 assessed as percent of control at 50000 nM by qPCR analysis relative to control; set-up: scale not given: the % may be the effect or the level left
[13] = target: Phosphatidylinositol 5-phosphate 4-kinase type-2 gamma (Homo sapiens) (UniProt Q8TBX8); test: Inhibition of DNA-tagged human PIP5K2C assessed as percent of control at 50000 nM by qPCR analysis relative to control; set-up: scale not given: the % may be the effect or the level left
KG-1 = test: Cytotoxicity against human KG-1 cells at 0.1-100 uM assessed as decrease in cell viability relative to control; type: functional, cell-based
[14] = target: Dual serine/threonine and tyrosine protein kinase (Homo sapiens) (UniProt Q6XUX3); test: Inhibition of DNA-tagged human RIPK5 assessed as percent of control at 50000 nM by qPCR analysis relative to control; set-up: scale not given: the % may be the effect or the level left
Sequence of Dual serine/threonine and tyrosine protein kinase (Homo sapiens) (Q6XUX3 whole entry): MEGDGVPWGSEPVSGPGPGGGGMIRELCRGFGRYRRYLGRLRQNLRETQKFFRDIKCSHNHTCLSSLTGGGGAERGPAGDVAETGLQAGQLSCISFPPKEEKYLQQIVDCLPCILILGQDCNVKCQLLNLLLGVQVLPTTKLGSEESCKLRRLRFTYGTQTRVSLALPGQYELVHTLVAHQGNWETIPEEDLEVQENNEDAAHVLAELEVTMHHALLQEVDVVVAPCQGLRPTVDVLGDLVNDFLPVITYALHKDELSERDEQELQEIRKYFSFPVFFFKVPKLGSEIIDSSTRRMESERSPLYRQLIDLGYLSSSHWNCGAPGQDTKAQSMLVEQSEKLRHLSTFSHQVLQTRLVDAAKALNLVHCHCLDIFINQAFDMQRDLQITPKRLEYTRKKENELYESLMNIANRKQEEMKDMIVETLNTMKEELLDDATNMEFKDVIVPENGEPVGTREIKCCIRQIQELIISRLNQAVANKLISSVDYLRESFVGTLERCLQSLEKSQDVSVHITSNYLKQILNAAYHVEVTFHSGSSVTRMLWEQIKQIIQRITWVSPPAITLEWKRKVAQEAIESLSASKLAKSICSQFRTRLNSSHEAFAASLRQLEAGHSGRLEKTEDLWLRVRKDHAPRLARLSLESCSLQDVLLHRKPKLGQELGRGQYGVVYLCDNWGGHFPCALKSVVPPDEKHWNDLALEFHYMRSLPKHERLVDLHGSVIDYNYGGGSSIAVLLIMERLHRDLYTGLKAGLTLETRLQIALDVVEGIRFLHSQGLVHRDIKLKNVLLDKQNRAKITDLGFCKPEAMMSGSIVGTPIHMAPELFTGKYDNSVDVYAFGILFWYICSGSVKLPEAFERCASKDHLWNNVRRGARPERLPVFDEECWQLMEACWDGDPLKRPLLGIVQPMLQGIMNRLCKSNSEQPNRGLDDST

[15] = target: Serine/threonine-protein kinase/endoribonuclease IRE1 (Homo sapiens) (UniProt O75460); test: Inhibition of DNA-tagged human ERN1 assessed as percent of control at 50000 nM by qPCR analysis relative to control; set-up: scale not given: the % may be the effect or the level left
Sequence of Serine/threonine-protein kinase/endoribonuclease IRE1 (Homo sapiens) (O75460 19-977 limits assumed): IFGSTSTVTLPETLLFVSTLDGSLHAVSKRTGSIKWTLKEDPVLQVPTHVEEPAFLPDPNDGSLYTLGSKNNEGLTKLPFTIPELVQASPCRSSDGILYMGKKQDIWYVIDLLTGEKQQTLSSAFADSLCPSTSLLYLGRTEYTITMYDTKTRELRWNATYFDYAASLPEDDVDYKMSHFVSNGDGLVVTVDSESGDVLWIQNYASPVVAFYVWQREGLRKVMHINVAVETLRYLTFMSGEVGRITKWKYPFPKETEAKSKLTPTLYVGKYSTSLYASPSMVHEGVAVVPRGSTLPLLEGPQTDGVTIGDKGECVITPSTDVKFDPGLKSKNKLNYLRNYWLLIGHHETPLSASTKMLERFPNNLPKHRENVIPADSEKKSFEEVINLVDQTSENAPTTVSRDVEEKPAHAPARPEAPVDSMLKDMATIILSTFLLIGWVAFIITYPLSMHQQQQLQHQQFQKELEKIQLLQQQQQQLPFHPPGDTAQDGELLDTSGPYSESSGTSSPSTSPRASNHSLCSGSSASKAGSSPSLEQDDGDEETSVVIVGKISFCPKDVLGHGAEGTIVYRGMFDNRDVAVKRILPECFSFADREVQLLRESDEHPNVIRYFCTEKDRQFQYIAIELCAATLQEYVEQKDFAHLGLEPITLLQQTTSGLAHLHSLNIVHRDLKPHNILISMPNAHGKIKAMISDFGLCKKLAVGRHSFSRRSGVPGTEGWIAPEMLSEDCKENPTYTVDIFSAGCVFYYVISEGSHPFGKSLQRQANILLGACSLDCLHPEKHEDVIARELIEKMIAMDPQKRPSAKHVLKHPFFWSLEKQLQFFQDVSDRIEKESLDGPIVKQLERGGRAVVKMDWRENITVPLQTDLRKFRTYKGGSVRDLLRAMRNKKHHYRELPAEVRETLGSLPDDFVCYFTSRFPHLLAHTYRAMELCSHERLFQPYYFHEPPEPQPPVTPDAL

[16] = tested on: Epidermal growth factor receptor (Homo sapiens), P00533 [G719C]; test: Inhibition of DNA-tagged human EGFR G719C mutant assessed as percent of control at 50000 nM by qPCR analysis relative to control; set-up: scale not given: the % may be the effect or the level left
[17] = target: Serine/threonine-protein kinase 32B (Homo sapiens) (UniProt Q9NY57); test: Inhibition of DNA-tagged human YANK2 assessed as percent of control at 50000 nM by qPCR analysis relative to control; set-up: scale not given: the % may be the effect or the level left
[18] = target: Tyrosine-protein kinase CSK (Homo sapiens) (UniProt P41240); test: Inhibition of DNA-tagged human CSK assessed as percent of control at 50000 nM by qPCR analysis relative to control; set-up: scale not given: the % may be the effect or the level left
[19] = target: Myotonin-protein kinase (Homo sapiens) (UniProt Q09013); test: Inhibition of DNA-tagged human DMPK assessed as percent of control at 50000 nM by qPCR analysis relative to control; set-up: scale not given: the % may be the effect or the level left
Sequence of Myotonin-protein kinase (Homo sapiens) (Q09013 whole entry): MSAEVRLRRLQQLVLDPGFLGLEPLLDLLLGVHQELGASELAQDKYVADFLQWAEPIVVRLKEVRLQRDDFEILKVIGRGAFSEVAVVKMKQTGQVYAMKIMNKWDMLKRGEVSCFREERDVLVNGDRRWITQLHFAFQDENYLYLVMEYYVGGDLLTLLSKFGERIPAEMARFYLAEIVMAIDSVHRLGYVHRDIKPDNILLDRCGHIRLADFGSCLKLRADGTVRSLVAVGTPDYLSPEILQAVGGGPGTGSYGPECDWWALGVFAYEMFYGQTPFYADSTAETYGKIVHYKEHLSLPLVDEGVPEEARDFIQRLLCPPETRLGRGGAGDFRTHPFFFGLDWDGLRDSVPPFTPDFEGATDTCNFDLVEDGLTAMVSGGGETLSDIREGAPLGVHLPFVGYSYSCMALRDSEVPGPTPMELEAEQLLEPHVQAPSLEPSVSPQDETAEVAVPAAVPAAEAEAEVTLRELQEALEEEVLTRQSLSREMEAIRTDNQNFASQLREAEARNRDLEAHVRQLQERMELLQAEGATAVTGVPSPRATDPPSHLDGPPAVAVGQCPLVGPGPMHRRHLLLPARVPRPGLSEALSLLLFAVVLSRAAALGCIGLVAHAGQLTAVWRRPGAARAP

[20] = target: Serine/threonine-protein kinase Nek7 (Homo sapiens) (UniProt Q8TDX7); test: Inhibition of DNA-tagged human NEK7 assessed as percent of control at 50000 nM by qPCR analysis relative to control; set-up: scale not given: the % may be the effect or the level left
Sequence of Serine/threonine-protein kinase Nek7 (Homo sapiens) (Q8TDX7 whole entry, looked up): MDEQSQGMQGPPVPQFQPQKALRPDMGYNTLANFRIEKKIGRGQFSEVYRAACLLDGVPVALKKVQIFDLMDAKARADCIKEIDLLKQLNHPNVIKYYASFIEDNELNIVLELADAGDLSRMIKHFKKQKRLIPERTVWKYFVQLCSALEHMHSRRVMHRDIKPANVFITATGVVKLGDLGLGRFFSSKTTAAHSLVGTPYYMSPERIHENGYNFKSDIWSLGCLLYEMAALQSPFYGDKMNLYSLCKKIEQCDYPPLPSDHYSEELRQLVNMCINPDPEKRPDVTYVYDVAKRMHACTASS

[21] = target: CDK4/Cyclin D3 (Homo sapiens) (UniProt P11802+P30281); test: Inhibition of DNA-tagged human CDK4/cyclin D3 assessed as percent of control at 50000 nM by qPCR analysis relative to control; type: protein-complex assay; set-up: scale not given: the % may be the effect or the level left
HEL = test: Cytotoxicity against human HEL cells at 0.1-100 uM assessed as decrease in cell viability relative to control; type: functional, cell-based
[22] = target: G protein-coupled receptor kinase 4 (Homo sapiens) (UniProt P32298); test: Inhibition of DNA-tagged human GRK4 assessed as percent of control at 50000 nM by qPCR analysis relative to control; set-up: scale not given: the % may be the effect or the level left
[23] = tested on: Mast/stem cell growth factor receptor Kit (Homo sapiens), P10721 [A829P]; test: Inhibition of DNA-tagged human KIT A829P mutant assessed as percent of control at 50000 nM by qPCR analysis relative to control; set-up: scale not given: the % may be the effect or the level left
[24] = target: Rhodopsin kinase GRK7 (Homo sapiens) (UniProt Q8WTQ7); test: Inhibition of DNA-tagged human GRK7 assessed as percent of control at 50000 nM by qPCR analysis relative to control; set-up: scale not given: the % may be the effect or the level left
Sequence of Rhodopsin kinase GRK7 (Homo sapiens) (Q8WTQ7 whole entry): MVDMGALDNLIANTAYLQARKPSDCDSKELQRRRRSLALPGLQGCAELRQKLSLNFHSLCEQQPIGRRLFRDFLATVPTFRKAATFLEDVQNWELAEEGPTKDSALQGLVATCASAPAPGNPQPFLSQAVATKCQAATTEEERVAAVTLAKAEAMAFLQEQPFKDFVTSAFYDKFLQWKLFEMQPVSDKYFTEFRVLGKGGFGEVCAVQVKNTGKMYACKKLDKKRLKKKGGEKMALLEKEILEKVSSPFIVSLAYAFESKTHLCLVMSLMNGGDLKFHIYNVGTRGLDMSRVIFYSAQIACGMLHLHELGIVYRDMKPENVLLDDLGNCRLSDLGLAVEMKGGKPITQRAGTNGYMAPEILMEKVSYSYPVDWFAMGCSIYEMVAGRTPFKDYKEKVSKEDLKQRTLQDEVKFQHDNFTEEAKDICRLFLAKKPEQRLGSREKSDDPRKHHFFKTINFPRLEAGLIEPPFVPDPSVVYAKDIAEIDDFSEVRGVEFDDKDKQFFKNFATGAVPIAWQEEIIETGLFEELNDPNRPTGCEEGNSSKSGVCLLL

[25] = target: Serine/threonine-protein kinase pim-1 (Homo sapiens) (UniProt P11309); test: Inhibition of DNA-tagged human PIM1 assessed as percent of control at 50000 nM by qPCR analysis relative to control; set-up: scale not given: the % may be the effect or the level left
[26] = target: Serine/threonine-protein kinase MRCK gamma (Homo sapiens) (UniProt Q6DT37); test: Inhibition of DNA-tagged human DMPK2 assessed as percent of control at 50000 nM by qPCR analysis relative to control; set-up: scale not given: the % may be the effect or the level left
[27] = target: Dual specificity protein kinase CLK3 (Homo sapiens) (UniProt P49761); test: Inhibition of DNA-tagged human CLK3 assessed as percent of control at 50000 nM by qPCR analysis relative to control; set-up: scale not given: the % may be the effect or the level left
Sequence of Dual specificity protein kinase CLK3 (Homo sapiens) (P49761 whole entry, looked up): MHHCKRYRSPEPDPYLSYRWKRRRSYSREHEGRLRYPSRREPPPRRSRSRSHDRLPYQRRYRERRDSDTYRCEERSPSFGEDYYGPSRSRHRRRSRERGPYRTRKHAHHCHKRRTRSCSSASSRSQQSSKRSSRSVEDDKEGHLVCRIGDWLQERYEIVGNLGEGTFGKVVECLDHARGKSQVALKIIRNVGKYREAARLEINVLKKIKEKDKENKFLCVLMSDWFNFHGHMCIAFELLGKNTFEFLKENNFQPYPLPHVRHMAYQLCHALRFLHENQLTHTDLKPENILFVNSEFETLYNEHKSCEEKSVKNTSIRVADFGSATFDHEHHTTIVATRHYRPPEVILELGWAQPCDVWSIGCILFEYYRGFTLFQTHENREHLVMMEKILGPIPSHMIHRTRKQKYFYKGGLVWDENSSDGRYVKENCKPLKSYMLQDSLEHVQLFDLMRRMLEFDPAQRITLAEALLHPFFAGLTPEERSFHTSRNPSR

[28] = target: TRAF2 and NCK-interacting protein kinase (Homo sapiens) (UniProt Q9UKE5); test: Inhibition of DNA-tagged human TNIK assessed as percent of control at 50000 nM by qPCR analysis relative to control; set-up: scale not given: the % may be the effect or the level left

Work on `CN1C(=O)/C(=C2/C(=O)Nc3ccccc32)c2ccccc21` yielded an Activity [1] of 83%, an Activity [2] of 68% and an Activity [3] of 100%. For the same molecule, the Activity [4] was 96%, the Activity [5] was 100% and the Activity [6] was 100%. For the same molecule, the Activity [7] was 75%, the Activity [8] was 89% and the Activity [9] was 78%. The Activity [10] was 97%, the Activity [11] was 100% and the Activity [12] was 87%. For the same molecule, the Activity [13] was 55%, the Activity (KG-1) was “Active” and the Activity [14] was 92%. It also gave an Activity [15] of 83%, an Activity [16] of 89% and an Activity [17] of 100%. For the same molecule, the Activity [18] was 100%, the Activity [19] was 84% and the Activity [20] was 59%. The Activity [21] was 100%, the Activity (HEL) was “Active” and the Activity [22] was 100%. The Activity [23] was 63%, the Activity [24] was 100% and the Activity [25] was 83%. It also gave an Activity [26] of 92%, an Activity [27] of 100% and an Activity [28] of 100%.
